According to ChEMBL document CHEMBL4270488, “Antibacterial Compounds from Marine Bacteria, 2010-2015” (J Nat Prod, 2017):
≈ marks a conversion by molar mass, not a printed value. Where a SMILES comes first, the peptide text is derived from it. [ ]: non-standard residue; d: D form. The star is where a group is joined. Tridecanoyl(3R-OH,11-Me) = CCC(C)CCCCCCC[C@@H](O)CC(=O)*; X2 = CCC(C)CC(C)CCCCC[C@@H](O)CC(=O)*

What was measured:
Staphylococcus aureus [1] = assay: Antibacterial activity against Staphylococcus aureus ATCC 29213; assay type: functional
Bacillus thuringiensis = assay: Antibacterial activity against Bacillus thuringiensis SCSIO BT01; assay type: functional
Enterococcus faecalis = assay: Antibacterial activity against Enterococcus faecalis ATCC 29212; assay type: functional
Staphylococcus aureus [2] = assay: Antibacterial activity against Staphylococcus aureus by broth dilution assay; assay type: functional
Bacillus subtilis [3] = assay: Antibacterial activity against Bacillus subtilis by broth dilution assay; assay type: functional
Pseudomonas aeruginosa = assay: Antibacterial activity against Pseudomonas aeruginosa by broth dilution assay; assay type: functional
Salmonella typhi = assay: Antibacterial activity against Salmonella typhi by broth dilution assay; assay type: functional, Salmonella enterica subsp. enterica serovar Typhi; details: Salmonella enterica
Bacillus subtilis [4] = assay: Antibacterial activity against Bacillus subtilis by serial dilution assay; assay type: functional
Micrococcus luteus = assay: Antibacterial activity against Micrococcus luteus by serial dilution assay; assay type: functional
Escherichia coli [5] = assay: Antibacterial activity against Escherichia coli by serial dilution assay; assay type: functional
Proteus vulgaris = assay: Antibacterial activity against Proteus vulgaris by serial dilution assay; assay type: functional
Staphylococcus aureus [6] = assay: Antibacterial activity against methicillin-resistant Staphylococcus aureus; assay type: functional
Escherichia coli [7] = assay: Antibacterial activity against Escherichia coli by broth dilution assay; assay type: functional
Bacillus subtilis [8] = assay: Antibacterial activity against Bacillus subtilis SCSIO BS01; assay type: functional
Staphylococcus aureus [9] = assay: Antibacterial activity against Staphylococcus aureus incubated for 18 hrs; assay type: functional

## CC[C@]1(O)C[C@@]2(O)c3c(c(C)cc(=O)n3C)C(=O)c3c(C)cc(=O)n1c32
Staphylococcus aureus [1]
  MIC: 1 to 4 µg/mL (≈ 2.81 to 11.2 µM)
Bacillus thuringiensis
  MIC: 1 to 4 µg/mL (≈ 2.81 to 11.2 µM)
Enterococcus faecalis
  MIC: 1 to 4 µg/mL (≈ 2.81 to 11.2 µM)

## CCC(C)CCCCCCC[C@@H](O)CC(=O)N[C@@H](CCC(=O)OC)C(=O)N[C@@H](CC(C)C)C(=O)N[C@@H](CC(C)C)C(=O)N[C@@H](CC(C)C)C(=O)O (stereo partly drawn) ({Tridecanoyl(3R-OH,11-Me)}-E(OMe)LLL-OH)
Staphylococcus aureus [2]
  MIC: 0.03 µg/mL (≈ 0.0413 µM)
Bacillus subtilis [3]
  MIC: 0.01 µg/mL (≈ 0.0138 µM)
Pseudomonas aeruginosa
  MIC: 0.03 µg/mL (≈ 0.0413 µM)
Salmonella typhi
  MIC: 0.01 µg/mL (≈ 0.0138 µM)

## CCC(C)CCCCCCC[C@@H](O)CC(=O)N[C@@H](CCC(=O)O)C(=O)N[C@@H](CC(C)C)C(=O)O (stereo partly specified)
Staphylococcus aureus [2]
  MIC: 0.01 µg/mL (≈ 0.0205 µM)
Bacillus subtilis [3]
  MIC: 0.01 µg/mL (≈ 0.0205 µM)
Pseudomonas aeruginosa
  MIC: 0.03 µg/mL (≈ 0.0616 µM)
Salmonella typhi
  MIC: 0.03 µg/mL (≈ 0.0616 µM)

## O=C1N/C(=N\O)C(c2ccc(O)c([N+](=O)[O-])c2)=C1c1ccccc1
Bacillus subtilis [4]
  MIC: 3 to 25 µg/mL (≈ 9.22 to 76.9 µM)
Micrococcus luteus
  MIC: 3 to 25 µg/mL (≈ 9.22 to 76.9 µM)
Escherichia coli [5]
  MIC: 3 to 25 µg/mL (≈ 9.22 to 76.9 µM)
Proteus vulgaris
  MIC: 3 to 25 µg/mL (≈ 9.22 to 76.9 µM)

## CC[C@H]1[C@@H]2C=C[C@@H]3[C@H]4/C=C/CC(=O)NCCC[C@H]5C(O)=C(C(=O)/C=C/[C@@H]4C[C@@H]3[C@H]2C[C@H]1C)C(=O)N5C
Staphylococcus aureus [6]
  MIC: 1 to 4 µg/mL (≈ 2.03 to 8.12 µM)

## CC(C)=CCc1cc(C(=O)Nc2c(O)c3ccc(O[C@@H]4OC(C)(C)[C@H](O)[C@@H](O)[C@H]4O)c(C)c3oc2=O)ccc1O
Staphylococcus aureus [6]
  MIC: > 64 µg/mL

## CO[C@@H]1/C=C/[C@H](O)C[C@@H](O)C/C=C\C=C\[C@@H](O)C/C=C/C=C\C(=O)O[C@H](C)CCC[C@@H]1O
Bacillus subtilis [3]
  MIC: ≥ 16 µg/mL
Escherichia coli [7]
  MIC: ≥ 16 µg/mL

## Cc1cc(=O)n(C)c2c1C(=O)c1c(C)cc(=O)n3c1[C@@]2(O)C[C@]3(C)O
Staphylococcus aureus [1]
  MIC: 1 to 4 µg/mL (≈ 2.92 to 11.7 µM)
Bacillus thuringiensis
  MIC: 1 to 4 µg/mL (≈ 2.92 to 11.7 µM)
Enterococcus faecalis
  MIC: 1 to 4 µg/mL (≈ 2.92 to 11.7 µM)

## C[C@@H](O)CCC/C=C/C=C/[C@H](O)C[C@@H](O)C/C=C\C=C\[C@@H](O)C/C=C/C=C\C(=O)O
Bacillus subtilis [3]
  MIC: 8 µg/mL (≈ 19 µM)
Escherichia coli [7]
  MIC: 8 µg/mL (≈ 19 µM)

## O=C1NC(=O)C(c2ccc(O)c([N+](=O)[O-])c2)=C1c1ccc(O)cc1
Bacillus subtilis [4]
  MIC: 25 to 100 µg/mL (≈ 76.6 to 307 µM)
Micrococcus luteus
  MIC: 25 to 100 µg/mL (≈ 76.6 to 307 µM)
Escherichia coli [5]
  MIC: 25 to 100 µg/mL (≈ 76.6 to 307 µM)
Proteus vulgaris
  MIC: 25 to 100 µg/mL (≈ 76.6 to 307 µM)

## C=C1CC[C@H](Br)C(C)(C)[C@@H]1C[C@@]12OC(C)(C)[C@H](Cl)C[C@]1(Cl)C(=O)c1c(O)cc(O)cc1C2=O
Staphylococcus aureus [1]
  MIC: ≤ 0.5 µg/mL
Bacillus subtilis [8]
  MIC: ≤ 0.5 µg/mL
Bacillus thuringiensis
  MIC: ≤ 0.5 µg/mL

## C[C@@H]1CCCCC/C=C/[C@H](O)C[C@@H](O)C/C=C\C=C\[C@@H](O[C@@H]2O[C@H](CO)[C@@H](O)[C@H](O)[C@H]2O)C/C=C/C=C\C(=O)O1
Staphylococcus aureus [2]
  MIC: 0.06 µg/mL (≈ 0.106 µM)
Bacillus subtilis [3]
  MIC: 0.06 µg/mL (≈ 0.106 µM)
Escherichia coli [7]
  MIC: 0.06 µg/mL (≈ 0.106 µM)
Pseudomonas aeruginosa
  MIC: 0.03 µg/mL (≈ 0.0529 µM)
Salmonella typhi
  MIC: 0.03 µg/mL (≈ 0.0529 µM)

## CCC(C)CCCCCCC[C@@H](O)CC(=O)N[C@@H](CCC(=O)O)C(=O)N[C@@H](CC(C)C)C(=O)N[C@@H](CC(C)C)C(=O)N[C@@H](C(=O)N[C@@H](CC(=O)O)C(=O)N[C@@H](CC(C)C)C(=O)N[C@@H](CC(C)C)C(=O)O)C(C)C (stereo partly drawn) ({Tridecanoyl(3R-OH,11-Me)}-ELL[dV]DLL-OH)
Staphylococcus aureus [2]
  MIC: 16 µg/mL (≈ 15.4 µM)
Bacillus subtilis [3]
  MIC: 16 µg/mL (≈ 15.4 µM)
Pseudomonas aeruginosa
  MIC: 16 µg/mL (≈ 15.4 µM)
Salmonella typhi
  MIC: 16 µg/mL (≈ 15.4 µM)

## C=C1CC[C@H](Cl)C(C)(C)[C@@H]1C[C@@]12OC(C)(C)[C@H](Cl)C[C@]1(Cl)C(=O)c1c(O)cc(O)cc1C2=O
Staphylococcus aureus [1]
  MIC: ≤ 2 µg/mL
Bacillus subtilis [8]
  MIC: ≤ 2 µg/mL
Bacillus thuringiensis
  MIC: ≤ 2 µg/mL

## CCC(C)CC(C)CCCCC[C@@H](O)CC(=O)N[C@@H](CCC(=O)O)C(=O)N[C@@H](CC(C)C)C(=O)N[C@@H](CC(C)C)C(=O)N[C@@H](C(=O)N[C@@H](CC(=O)O)C(=O)N[C@@H](CC(C)C)C(=O)N[C@@H](CC(C)C)C(=O)O)C(C)C (stereo partly specified) (X2-ELL[dV]DLL-OH)
Staphylococcus aureus [2]
  MIC: 16 µg/mL (≈ 15.2 µM)
Bacillus subtilis [3]
  MIC: 32 µg/mL (≈ 30.3 µM)
Pseudomonas aeruginosa
  MIC: 16 µg/mL (≈ 15.2 µM)
Salmonella typhi
  MIC: 32 µg/mL (≈ 30.3 µM)

## CC[C@H]1[C@@H]2C=C[C@@H]3[C@H]4C/C=C\C(=O)NCCC[C@@H]5NC(=O)C(=C5O)C(=O)/C=C/[C@@H]4C[C@@H]3[C@H]2C[C@H]1C
Staphylococcus aureus [6]
  MIC: 1 to 4 µg/mL (≈ 2.09 to 8.36 µM)

## C[C@@H]1O[C@](C)(C(=O)O)O[C@H]1/C=C/C=C/C=C/C(=O)O[C@H]1CC[C@H](c2ccc3c(c2O)C(=O)c2ccc4c(c2C3=O)C(=O)[C@H](O)[C@](C)(O)C4)O[C@@H]1C
Staphylococcus aureus [9]
  MIC: 2 to 6 µg/mL (≈ 2.85 to 8.54 µM)

## C/C(C=O)=C/CC/C(C)=C/C[C@@]12OC(C)(C)[C@H](Cl)C[C@]1(Cl)C(=O)c1c(O)cc(O)cc1C2=O
Staphylococcus aureus [1]
  MIC: 4 to 32 µg/mL (≈ 8.07 to 64.6 µM)
Bacillus subtilis [8]
  MIC: 4 to 32 µg/mL (≈ 8.07 to 64.6 µM)
Bacillus thuringiensis
  MIC: 4 to 32 µg/mL (≈ 8.07 to 64.6 µM)

## CO[C@@H]1[C@@H](OC(N)=O)[C@@H](O)[C@H](Oc2ccc3c(O)c(NC(=O)c4cc(O)c(O)c(CC=C(C)C)c4)c(=O)oc3c2C)OC1(C)C
Staphylococcus aureus [6]
  MIC: 8 to 16 µg/mL (≈ 12.7 to 25.5 µM)

## C[C@@H]1CCC/C=C/C=C/[C@H](O)C[C@@H](O)[C@H](O)/C=C\C=C\[C@@H](O)C/C=C/C=C\C(=O)O1
Staphylococcus aureus [2]
  MIC: 0.1 µg/mL (≈ 0.239 µM)
Bacillus subtilis [3]
  MIC: 100 µg/mL (≈ 239 µM)
Escherichia coli [7]
  MIC: 0.3 µg/mL (≈ 0.717 µM)

## O=C1N/C(=N\O)C(c2ccccc2)=C1c1ccc(O)c([N+](=O)[O-])c1
Bacillus subtilis [4]
  MIC: 3 to 25 µg/mL (≈ 9.22 to 76.9 µM)
Micrococcus luteus
  MIC: 3 to 25 µg/mL (≈ 9.22 to 76.9 µM)
Escherichia coli [5]
  MIC: 3 to 25 µg/mL (≈ 9.22 to 76.9 µM)
Proteus vulgaris
  MIC: 3 to 25 µg/mL (≈ 9.22 to 76.9 µM)

## CC(C)=CCc1cc(C(=O)Nc2c(O)c3ccc(O[C@@H]4OC(C)(C)[C@H](O)[C@@H](O)[C@H]4O)c(C)c3oc2=O)cc(O)c1O
Staphylococcus aureus [6]
  MIC: > 64 µg/mL

## CC[C@H]1[C@@H]2C=C[C@@H]3[C@H]4/C=C/CC(=O)NCCC[C@@H]5NC(=O)C(=C5O)C(=O)/C=C/[C@@H]4C[C@@H]3[C@H]2C[C@H]1C
Staphylococcus aureus [6]
  MIC: 1 to 4 µg/mL (≈ 2.09 to 8.36 µM)

## O=C1NC(=O)C(c2ccc(O)c([N+](=O)[O-])c2)=C1c1ccccc1
Bacillus subtilis [4]
  MIC: 25 to 100 µg/mL (≈ 80.6 to 322 µM)
Micrococcus luteus
  MIC: 25 to 100 µg/mL (≈ 80.6 to 322 µM)
Escherichia coli [5]
  MIC: 25 to 100 µg/mL (≈ 80.6 to 322 µM)
Proteus vulgaris
  MIC: 25 to 100 µg/mL (≈ 80.6 to 322 µM)
